# How the values were obtained:
# Assay in all cases: Test E greenhouse herbicide test, pre- and postemergence
# Type in all cases: in vivo
# Settings in all cases: Preemergence
# [1] = test system: crabgrass, large (large crabgrass, Digitaria sanguinalis)
# Excerpt: (§1) Seeds of plant species selected from corn (Zea mays), soybean (Glycine max), velvetleaf (Abutilon theophrasti), lambsquarters (Chenopodium album), wild poinsettia (Euphorbia heterophylla), pigweed, palmer (palmer pigweed, Amaranthus palmeri), waterhemp (common waterhemp, Amaranthus rudis), surinam grass (Brachiaria decumbens), crabgrass, large (large crabgrass, Digitaria sanguinalis), crabgrass, Brazilian (Brazilian crabgrass, Digitaria horizontalis), panicum, fall (fall panicum, Panicum dichotomiflorum), foxtail, giant (giant foxtail, Setaria faberii), foxtail, green (green foxtail, Setaria viridis), goosegrass (Eleusine indica), johnsongrass (Sorghum halepense), ragweed (common ragweed, Ambrosia elatior), barnyardgrass (Echinochloa crus-galli), sandbur (southem sandbur, Cenchrus echinatus), arrowleaf sida (Sida rhombifolia), Italian ryegrass (Lolium multiflorum), dayflower (Virginia (VA) dayflower, Commelina virginica), field bindweed (Convolvulus arvensis), momingglory (Ipomoea coccinea), nightshade (eastern black nightshade, Solanum ptycanthum), kochia (Kochia scoparia), nutsedge, yellow (yellow nutsedge, Cyperus esculentus), horseweed (Conyza canadensis), and beggarticks (hairy beggarticks, Bidens pilosa), were planted into a silt loam soil and treated preemergence with test chemicals formulated in a non-phytotoxic solvent mixture which included a surfactant.
# (§2) At the same time, plants from these crop and weed species and also waterhemp_RES1, (ALS & Triazine resistant common waterhemp, Amaranthus rudis), and waterhemp_RES2, (ALS & HPPD resistant common waterhemp, Amaranthus rudis) were planted in pots containing Redi-Earth® planting medium (Scotts Company, 14111 Scottslawn Road, Marysville, Ohio 43041) comprising spaghnum peat moss, vermiculite, wetting agent and starter nutrients were treated with postemergence applications of test chemicals formulated in the same manner. Plants ranged in height from 2 to 18 cm for postemergence treatments (1- to 4-leaf stage). Treated plants and controls were maintained in a greenhouse for 14 to 21 d, after which time all species were compared to controls and visually evaluated. Plant response ratings, summarized in Table E, are based on a scale of 0 to 100 where 0 is no effect and 100 is complete control. A dash (-) response means no test result.
# [2] = test system: sandbur (southem sandbur, Cenchrus echinatus)
# Excerpt: as §1, §2
# [3] = test system: foxtail, giant (giant foxtail, Setaria faberii)
# Excerpt: as §1, §2
# [4] = test system: waterhemp (common waterhemp, Amaranthus rudis)
# Excerpt: as §1, §2
# [5] = test system: nutsedge, yellow (yellow nutsedge, Cyperus esculentus)
# Excerpt: as §1, §2
# [6] = test system: velvetleaf (Abutilon theophrasti)
# Excerpt: as §1, §2
# [7] = test system: lambsquarters (Chenopodium album)
# Excerpt: as §1, §2
# [8] = test system: beggarticks (hairy beggarticks, Bidens pilosa)
# Excerpt: as §1, §2
# [9] = test system: dayflower (Virginia (VA) dayflower, Commelina virginica)
# Excerpt: as §1, §2
# [10] = test system: Italian ryegrass (Lolium multiflorum)
# Excerpt: as §1, §2
# [11] = test system: foxtail, green (green foxtail, Setaria viridis)
# Excerpt: as §1, §2
# [12] = test system: panicum, fall (fall panicum, Panicum dichotomiflorum)
# Excerpt: as §1, §2
# kochia (Kochia scoparia) = test system: kochia (Kochia scoparia)
# Excerpt: as §1, §2
# [13] = test system: barnyardgrass (Echinochloa crus-galli)
# Excerpt: as §1, §2
# [14] = test system: johnsongrass (Sorghum halepense)
# Excerpt: as §1, §2
# [15] = test system: crabgrass, Brazilian (Brazilian crabgrass, Digitaria horizontalis)
# Excerpt: as §1, §2
# [16] = test system: ragweed (common ragweed, Ambrosia elatior)
# Excerpt: as §1, §2
# [17] = 62 g ai/ha, scale 0 to 100 (0 no effect, 100 complete control)
# [18] = 31 g ai/ha, scale 0 to 100, 0 no effect, 100 complete control
# [19] = 125 g ai/ha, visual, scale 0 no effect to 100 complete control
# [20] = 250 g ai/ha, visual, scale 0 no effect to 100 complete control
# [21] = 125 g ai/ha, scale 0 to 100 (0 no effect, 100 complete control)
smiles,measurement,setting,value
CC(=O)Oc1c(C)nn(C)c(=O)c1-c1c(C)sc2c(C)cc(C)cc12 [Compound 27],"Plant response rating, Crabgrass, Large",[1]; [17],50
same,"Plant response rating, Crabgrass, Large",[1]; [18],35
same,"Plant response rating, Crabgrass, Large",[1]; [19],50
same,"Plant response rating, Crabgrass, Large",[1]; [20],90
same,"Plant response rating, Sandbur",[2]; [17],40
same,"Plant response rating, Sandbur",[2]; [21],90
same,"Plant response rating, Sandbur",[2]; [18],30
same,"Plant response rating, Sandbur",[2]; [20],90
same,"Plant response rating, Foxtail, Giant",[3]; [17],98
same,"Plant response rating, Foxtail, Giant",[3]; [18],95
same,"Plant response rating, Foxtail, Giant",[3]; [19],100
same,"Plant response rating, Foxtail, Giant",[3]; [20],100
same,"Plant response rating, Waterhemp",[4]; [17],90
same,"Plant response rating, Waterhemp",[4]; [21],85
same,"Plant response rating, Waterhemp",[4]; [18],95
same,"Plant response rating, Waterhemp",[4]; [20],95
same,"Plant response rating, Nutsedge, Yellow",[5]; [17],15
same,"Plant response rating, Nutsedge, Yellow",[5]; [21],98
same,"Plant response rating, Nutsedge, Yellow",[5]; [18],10
same,"Plant response rating, Nutsedge, Yellow",[5]; [20],80
same,"Plant response rating, Velvetleaf",[6]; [17],80
same,"Plant response rating, Velvetleaf",[6]; [21],95
same,"Plant response rating, Velvetleaf",[6]; [18],50
same,"Plant response rating, Velvetleaf",[6]; [20],100
same,"Plant response rating, Lambsquarters",[7]; [17],100
same,"Plant response rating, Lambsquarters",[7]; [18],100
same,"Plant response rating, Lambsquarters",[7]; [19],100
same,"Plant response rating, Lambsquarters",[7]; [20],100
same,"Plant response rating, Beggarticks",[8]; [17],100
same,"Plant response rating, Beggarticks",[8]; [18],90
same,"Plant response rating, Beggarticks",[8]; [19],100
same,"Plant response rating, Beggarticks",[8]; [20],100
same,"Plant response rating, Dayflower, VA",[9]; [17],10
same,"Plant response rating, Dayflower, VA",[9]; [18],0
same,"Plant response rating, Dayflower, VA",[9]; [19],30
same,"Plant response rating, Dayflower, VA",[9]; [20],65
same,"Plant response rating, Ryegrass, Italian",[10]; [17],95
same,"Plant response rating, Ryegrass, Italian",[10]; [21],100
same,"Plant response rating, Ryegrass, Italian",[10]; [18],80
same,"Plant response rating, Ryegrass, Italian",[10]; [20],100
same,"Plant response rating, Foxtail, Green",[11]; [17],100
same,"Plant response rating, Foxtail, Green",[11]; [18],75
same,"Plant response rating, Foxtail, Green",[11]; [19],100
same,"Plant response rating, Foxtail, Green",[11]; [20],100
same,"Plant response rating, Panicum, Fall",[12]; [17],100
same,"Plant response rating, Panicum, Fall",[12]; [21],100
same,"Plant response rating, Panicum, Fall",[12]; [18],100
same,"Plant response rating, Panicum, Fall",[12]; [20],100
same,"Plant response rating, Kochia",kochia (Kochia scoparia); [17],25
same,"Plant response rating, Kochia",kochia (Kochia scoparia); [18],0
same,"Plant response rating, Kochia",kochia (Kochia scoparia); [19],80
same,"Plant response rating, Kochia",kochia (Kochia scoparia); [20],100
same,"Plant response rating, Barnyardgrass",[13]; [17],50
same,"Plant response rating, Barnyardgrass",[13]; [18],15
same,"Plant response rating, Barnyardgrass",[13]; [19],80
same,"Plant response rating, Barnyardgrass",[13]; [20],95
same,"Plant response rating, Johnsongrass",[14]; [17],75
same,"Plant response rating, Johnsongrass",[14]; [18],70
same,"Plant response rating, Johnsongrass",[14]; [19],75
same,"Plant response rating, Johnsongrass",[14]; [20],70
same,"Plant response rating, Crabgrass, Brazil",[15]; [17],70
same,"Plant response rating, Crabgrass, Brazil",[15]; [18],70
same,"Plant response rating, Crabgrass, Brazil",[15]; [19],95
same,"Plant response rating, Crabgrass, Brazil",[15]; [20],95
same,"Plant response rating, Ragweed",[16]; [17],95
same,"Plant response rating, Ragweed",[16]; [21],100
same,"Plant response rating, Ragweed",[16]; [18],95
same,"Plant response rating, Ragweed",[16]; [20],100
